The subject of series [1] is MDA-MB-231. The series can be described thus: Cytotoxicity against human MDA-MB-231 cells cultured as 2.5D cells assessed as cell death at 125 ug/ml measured after 12 hrs by OCT/imaris based analysis relative to control. As to conditions: dose 125 µg/ml. It counts as functional.
Series [2] concerns MDA-MB-231. The experiment in a line: Cytotoxicity against human MDA-MB-231 cells cultured as 2.5D cells assessed as cell death measured after 12 hrs relative to control. It counts as functional.
Series [3] relates to MDA-MB-231. The experiment in a line: Cytotoxicity against human MDA-MB-231 cells cultured as 3D cells assessed as increase in dead cell count at 125 ug/ml incubated for 12 hrs by tryphan blue based analysis (Rvb=11000x10^3No_unit). The note with it: dose 125 µg/ml. The format is functional.
For series [4], the system named is MDA-MB-231. The experiment in a line: Cytotoxicity against human MDA-MB-231 cells cultured as 3D cells assessed as cell death measured after 12 hrs relative to control. It counts as functional.
Series [5] in a line: Hemolytic activity against Sheep RBC assessed as hemolysis by microplate reader analysis. It counts as toxicity, cell-based, Ovis aries, Erythrocyte. The note with it: sheep red blood cells (erythrocytes).
In series [6] the test system is MDA-MB-231. The experiment in a line: Cytotoxicity against human MDA-MB-231 cultured as 2D cells assessed as inhibition of cell growth measured after 12 hrs by CCK8 assay. The format is functional, cell-based. The note with it: MDA-MB-231, 12 h.
In series [7] the test system is MDA-MB-231. The series can be described thus: Cytotoxicity against human MDA-MB-231 cells cultured as 2.5D cells assessed as cell death at 125 ug/ml measured after 12 hrs by tryphan blue based analysis relative to control. The format is functional. As to conditions: dose 125 µg/ml.
In series [8] the test system is MDA-MB-231. The series can be described thus: Cytotoxicity against human MDA-MB-231 cells cultured as 2.5D cells assessed as decrease in live cell count at 125 ug/ml incubated for 12 hrs by tryphan blue based analysis (Rvb=22000x10^3No_unit). The format is functional. As to conditions: dose 125 µg/ml.
For series [9], the system named is MDA-MB-231. The experiment in a line: Cytotoxicity against human MDA-MB-231 cells cultured as 3D cells assessed as cell death at 125 ug/ml measured after 12 hrs by tryphan blue based analysis relative to control. The note with it: dose 125 µg/ml. The format is functional.
The test system of another series is Jurkat. The experiment in a line: Antiproliferative activity against human Jurkat T cells assessed as inhibition of cell growth at 25 ug/ml relative to control. It counts as functional.
A short description of series [10]: Therapeutic index, ratio of IC50 for cytotoxicity against human dermal fibroblast cultured as 2.5 D cells to IC50 for cytotoxicity against human MDA-MB-231 cultured as 2.5 D cells. As to conditions: read-out: TI. It counts as toxicity, cell-based.
Series [11] can be described thus: Selectivity ratio of IC50 for human MDA-MB-231 cultured as 2.5D cells to IC50 for human MDA-MB-231 cultured as 2D cells. The format is functional.
Series [12] in a line: Therapeutic index, ratio of HC50 for sheep RBC to IC50 for cytotoxicity against human MDA-MB-231 cultured as 2D cells. The note with it: sheep (RBC) and human (MDA-MB-231), sheep red blood cells versus MDA-MB-231 cells, 2D culture; read-out: TI. The format is toxicity, cell-based.
In series [13] the test system is MDA-MB-231. The experiment in a line: Cytotoxicity against human MDA-MB-231 cells cultured as 3D cells assessed as cell death at 125 ug/ml measured after 12 hrs by OCT/imaris based analysis relative to control. The format is functional. As to conditions: dose 125 µg/ml.
For series [14], the system named is MDA-MB-231. The experiment in a line: Cytotoxicity against human MDA-MB-231 cells cultured as 3D cells assessed as decrease in live cell count at 125 ug/ml incubated for 12 hrs by tryphan blue based analysis (Rvb=20900x10^3No_unit). The format is functional. As to conditions: dose 125 µg/ml.
A short description of series [15]: Therapeutic index, ratio of HC50 for Sheep RBC to IC50 for cytotoxicity against human MDA-MB-231 cultured as 2.5D cells. It counts as toxicity, cell-based. The note with it: sheep (RBC) and human (MDA-MB-231), sheep red blood cells versus MDA-MB-231 cells, 2.5D culture; read-out: TI.
Series [16] relates to MDA-MB-231. The series can be described thus: Cytotoxicity against human MDA-MB-231 cultured as 3D cells assessed as inhibition of cell growth measured after 12 hrs by CellTiter-Glo luciferase detection reagent based assay. The format is functional. The note with it: MDA-MB-231, 12 h. A general note: ATP-based viability assays read luminescence as a measure of living cells.

A short description of series [17]: Hemolytic activity in Sheep RBC assessed as hemolysis at 31 ug/ml by microplate reader analysis relative to control. It counts as toxicity, cell-based, Ovis aries, Erythrocyte. The note with it: sheep red blood cells (erythrocytes), at 31 µg/mL, read-out: Activity.
Series [18] relates to MDA-MB-231. The experiment in a line: Cytotoxicity against human MDA-MB-231 cultured as 2.5D cells assessed as inhibition of cell growth measured after 12 hrs by CellTiter-Glo luciferase detection reagent based assay. It counts as functional. As to conditions: MDA-MB-231, 12 h.
A short description of series [19]: Therapeutic index, ratio of HC50 for Sheep RBC to IC50 for cytotoxicity against human MDA-MB-231 cultured as 3D cells. As to conditions: sheep (RBC) and human (MDA-MB-231), sheep red blood cells versus MDA-MB-231 cells, 3D culture; read-out: TI. The format is toxicity, cell-based.
Series [20] relates to MDA-MB-231. The series can be described thus: Cytotoxicity against human MDA-MB-231 cells cultured as 2.5D cells assessed as increase in dead cell count at 125 ug/ml incubated for 12 hrs by tryphan blue based analysis (Rvb=7700x10^3No_unit). As to conditions: dose 125 µg/ml. The format is functional.
A short description of series [21]: Selectivity ratio of IC50 for human MDA-MB-231 cultured as 3D cells to IC50 for human MDA-MB-231 cultured as 2D cells. The format is functional.
Series [22] is described as follows: Cytotoxicity against human dermal fibroblast cultured as 2D cells assessed as reduction in cell viability measured after 12 hrs by CCK8 assay. It counts as toxicity, cell-based. The note with it: human dermal fibroblasts (NHDF), 2D culture. On the technique in general: Tetrazolium assays rely on reduction of a dye to a coloured formazan, in cell work by metabolically active cells.

The nature of series [23]: Therapeutic index, ratio of IC50 for cytotoxicity against human dermal fibroblast cultured as 3D cells to IC50 for cytotoxicity against human MDA-MB-231 cultured as 3D cells. It counts as toxicity, cell-based. The note with it: human dermal fibroblasts versus MDA-MB-231 cells, 3D culture, read-out: TI.
Series [24] can be described thus: Therapeutic index, ratio of IC50 for cytotoxicity against human dermal fibroblast cultured as 2D cells to IC50 for cytotoxicity against human MDA-MB-231 cultured as 2D cells. The format is toxicity, cell-based. As to conditions: human dermal fibroblasts versus MDA-MB-231 cells, 2D culture, read-out: TI.
Series [25] concerns MDA-MB-231. The experiment in a line: Cytotoxicity against human MDA-MB-231 cells cultured as 3D cells assessed as decrease in live cell count at 62.5 ug/ml incubated for 12 hrs by tryphan blue based analysis (Rvb=20900x10^3No_unit). The note with it: dose 62.5 µg/ml. It counts as functional.
Series [26] deals with MDA-MB-231. The series can be described thus: Cytotoxicity against human MDA-MB-231 cells cultured as 2.5D cells assessed as increase in dead cell count at 62.5 ug/ml incubated for 12 hrs by tryphan blue based analysis (Rvb=7700x10^3No_unit). It counts as functional. The note with it: dose 62.5 µg/ml.
In series [27] the test system is MDA-MB-231. The experiment in a line: Cytotoxicity against human MDA-MB-231 cells cultured as 3D cells assessed as cell death at 62.5 ug/ml measured after 12 hrs by tryphan blue based analysis relative to control. The format is functional. As to conditions: dose 62.5 µg/ml.
Series [28] concerns MDA-MB-231. The series can be described thus: Cytotoxicity against human MDA-MB-231 cells cultured as 3D cells assessed as cell death at 62.5 ug/ml measured after 12 hrs by OCT/imaris based analysis relative to control. It counts as functional. As to conditions: dose 62.5 µg/ml.
Series [29] concerns MDA-MB-231. The series can be described thus: Cytotoxicity against human MDA-MB-231 cells cultured as 2.5D cells assessed as cell death at 62.5 ug/ml measured after 12 hrs by tryphan blue based analysis relative to control. As to conditions: dose 62.5 µg/ml. It counts as functional.
Series [30] relates to MDA-MB-231. The series can be described thus: Cytotoxicity against human MDA-MB-231 cells cultured as 2.5D cells assessed as decrease in live cell count at 62.5 ug/ml incubated for 12 hrs by tryphan blue based analysis (Rvb=22000x10^3No_unit). The format is functional. The note with it: dose 62.5 µg/ml.
For series [31], the system named is MDA-MB-231. The series can be described thus: Cytotoxicity against human MDA-MB-231 cells cultured as 2.5D cells assessed as cell death at 62.5 ug/ml measured after 12 hrs by OCT/imaris based analysis relative to control. As to conditions: dose 62.5 µg/ml. The format is functional.
Series [32] has as its system MDA-MB-231. The experiment in a line: Cytotoxicity against human MDA-MB-231 cells cultured as 3D cells assessed as increase in dead cell count at 62.5 ug/ml incubated for 12 hrs by tryphan blue based analysis (Rvb=11000x10^3No_unit). The format is functional. As to conditions: dose 62.5 µg/ml.
Series [33] can be described thus: Growth inhibition of human dermal fibroblast cultured as 2D cells by tryphan blue based analysis. It counts as toxicity, cell-based. As to conditions: human dermal fibroblasts (NHDF), 2D culture.

Values after ≈ are worked out from the molar mass of the structure shown. Bounds are passed on as bounds.

What is called HC50 is the concentration that lyses half of the red blood cells. As a reminder, the IC50 is the midpoint of a concentration-inhibition curve. One may read the inhibition as the change of the read-out against control, counted positive when it falls. A word on the GI50: it is the concentration giving 50% growth inhibition.

For `CCOC(=O)CCCCCCC/C=C\CCCCCCC(C)O[C@@H]1O[C@H](COC(C)=O)[C@@H](O)[C@H](O)[C@H]1O[C@@H]1O[C@H](COC(C)=O)[C@@H](O)[C@H](O)[C@H]1O` (stereo not given in full), the Activity is 70% in the series with MDA-MB-231 [1]; 80.2% with MDA-MB-231 [2]; 22917 10^3No_unit with MDA-MB-231 [3]; 88.2% in the series on MDA-MB-231 [4]; 70% in the series on MDA-MB-231 [7]; 5500 10^3No_unit in the series on MDA-MB-231 [8]. Further, the Activity is recorded as 70% with MDA-MB-231 [9], 70% with MDA-MB-231 [13], 3667 10^3No_unit in the series on MDA-MB-231 [14] and 16317 10^3No_unit with MDA-MB-231 [20]. Besides, the HC50 in series [5] stood at 125 µg/mL. Besides, the results for the IC50 in the series on MDA-MB-231 [6], in the series with MDA-MB-231 [16] and in the series with MDA-MB-231 [18] were 27 µg/mL (≈ 36.7 µM), 130 µg/mL (≈ 177 µM) and 120 µg/mL (≈ 163 µM), respectively. Besides, in the series with Jurkat, the inhibition at 25 µg/mL was 90%. For the same compound, the selectivity ratio in series [10] was 0.36; in series [12] it was 4.63; in [15], 1.04; in series [19], 0.96; in [23], 0.33; in series [24], 1.59. For the same compound, the “Ratio IC50” value stood at 4.5 in [11] and 5 in series [21]. In addition, the hemolysis at 31 ug/ml in [17] is greater than 10%. Moreover, the IC50 at 12 h in series [22] turned out to be 43 µg/mL (≈ 58.5 µM).

For `CC(=O)OC[C@H]1O[C@H]2OC(C)CCCCCC/C=C\CCCCCCCC(=O)O[C@H]3[C@H](O)[C@@H](O)[C@H](O[C@@H]2[C@@H](O)[C@@H]1O)O[C@@H]3COC(C)=O` (stereo not given in full), the Activity with MDA-MB-231 [2] is recorded as 88.4%; in the series on MDA-MB-231 [4], 89.3%; with MDA-MB-231 [25], 3300 10^3No_unit; with MDA-MB-231 [26], 13933 10^3No_unit; in the series on MDA-MB-231 [27] it was 70%; in the series with MDA-MB-231 [28] it was 70%. The Activity is listed as 70% in the series with MDA-MB-231 [29], 3117 10^3No_unit in the series with MDA-MB-231 [30], 70% in the series on MDA-MB-231 [31] and 17783 10^3No_unit in the series with MDA-MB-231 [32]. In addition, the HC50 in series [5] stood at 125 µg/mL. The IC50 was determined as 14 µg/mL (≈ 20.3 µM) in the series on MDA-MB-231 [6], 33 µg/mL (≈ 47.9 µM) in the series with MDA-MB-231 [16] and 38 µg/mL (≈ 55.2 µM) with MDA-MB-231 [18]. Also, the selectivity ratio is 0.82 in [10]; 8.93 in series [12]; 3.29 in series [15]; 3.79 in series [19]; 0.94 in [23]; 2.21 in series [24]. The “Ratio IC50” value was 3 in series [11] and 2.5 in series [21]. The hemolysis at 31 ug/ml in series [17] is greater than 10%. The IC50 at 12 h in series [22] turned out to be 31 µg/mL (≈ 45 µM).

The compound `COc1cccc2c1C(=O)c1c(O)c3c(c(O)c1C2=O)C[C@@](O)(C(=O)CO)C[C@@H]3O[C@H]1C[C@H](N)[C@H](O)[C@H](C)O1` [DOXORUBICIN] showed a concentration for 50% growth inhibition (GI50) in series [33] of 30 µg/mL (≈ 55.2 µM).

Source of the values: ChEMBL document CHEMBL5316361 (J Nat Prod, 2023).
